Laboratory results published in patent publication US12433876B2, “Septin inhibitors for treatment of cancers” (UNIVERSITY OF ROCHESTER, priority 2019, dated 2025).

Key:
[1] = test system: JIMT-1 breast cancer cells; assay: RNA-Seq whole transcriptome analysis, JIMT-1; format: cell-based, human; settings: 10 nM Afatinib
[2] = test system: endometrial (ECC-1 and KLE) and ovarian (HCH-1, OVCAR-3, and SKOV-3) cancer cell lines; assay: MTS cell viability, gynecologic cancer cell line panel; format: cell-based; settings: for proliferation in multiple endometrial and ovarian cancer cells: at considerably lower doses than FCF; for cytotoxic / anti-proliferative activity (FIG. 2A): fixed concentration 100 μM, 24 hours
Experimental: Cell lines, Culture, and Reagents. Cells were maintained in either DMEM (SKOV-3, KLE, OVCAR-3, OVCAR8-C5 and IGROV-1) or RPMI-1640 (ECC-1 and HCH-1), supplemented with 10% fetal calf serum (or 20% for OVCAR-3), penicillin (100 units/mL), and streptomycin (100 μg/mL) at 37° C. with 5% CO2 in a humidified incubator. Antibodies were purchased from Abcam (septin-2; ab179436) and Cell Signaling Technology; ERK (9102), p-ERK (4370), -actin (3700), u-Tubulin (2144), EGFR (4267) and HER2 (4290). FCF was purchased from Abcam. All other chemicals were from Sigma Aldrich. Synthesis of Derivaties. […] The reaction was monitored using thin-layer chromatography plates with DCM-MeOH or pure ethyl acetate as eluent. Spots were monitored in a UV chamber. The reaction mixture, upon completion of the reaction, was poured into wet ice mixture and triturated, then the separated solid was filtered by vacuum. The product was washed with hexane, followed by diethyl ether, and was dried under vacuum. The compounds were characterized by spectrophotometric techniques. Quantitative Real-Time PCR. The indicated cell lines were transfected with siRNA targeting septin-2 or non-targeting control siRNA (Santa Cruz Biotechnology: sc-37007 or sc-40936) using Lipofectamine 3000 (Invitrogen). Tri reagent and Direct-zol kit (Zymo Research) were used to lyse and isolate total RNA. Reverse transcription was performed using iScript cDNA synthesis kit (BioRad), both following the manufacturer's recommendations. Quantitative real-time PCR was conducted using QuantStudio 12 K Flex Real-Time PCR System (ABI) and the Taqman Gene Expression Assay (ABI) consisting of the FAM-labeled probes as follows: SEPT2 (Hs01565417_ml); WFDC2 (Hs00899484_ml); TBP (Hs00427620_ml) or B2M (Hs00187842_ml), which was used as reference for normalization. Cell Viability, Proliferation and Apoptosis Assay. Cell viability, proliferation, and cellular apoptosis were measured using the MTS (Promega), BrdU cell proliferation (Cell Signaling Technology), and Caspase-Glo 3/7 apoptosis detection (Promega) assays, following the respective manufacturer's recommendations with suitable modification. Enzyme-Linked Immunosorbent Assay (ELISA) and Immunoblotting. Cells were maintained overnight in the culture media described above. […] Following the treatment, cell lysates and supernatants were collected and subjected to HE4 assay (Human HE4 Quantikine ELISA Kit, R&D Systems). The amount of HE4 in supernatant was normalized to the protein concentration of matching cell lysate. The levels of HER2 were determined by Human Total ErbB2/Her2 DuoSet IC ELISA (R&D systems. Wester blot analysis was conducted using the protocol previously published (see Kim, K. K. et al. Tetrathiomolybdate inhibits mitochondrial complex IV and mediates degradation of hypoxia-inducible factor-1alpha in cancer cells. Sci. Rep. 5, 14296, 2015). Data Acquisition and Statistical Analysis. Gene expression profiling of septins, comparing microdissected normal ovarian stroma (N=8) against that of tumor stroma samples (N=31) from high grade serous ovarian cancer patients, was obtained from Mixed Ovarian Cancer (CAFs)-Wong-77-u133p2 data-set through ‘R2: Genomics Analysis and Visualization Platform (http://r2/am/n1). Mean values with SD were plotted and compared using Student t-test (two tail, unpaired heteroscedastic t-test, significant difference when p<0.01). The prognostic assessment of septin-2 amongst different cancers or septins in endometrial cancer was conducted using TCGA data acquired through Human Protein Atlas (http://www.proteinatlas.org) (see Uhlen, M. et al. Towards a knowledge-based Human Protein Atlas. Nat. Biotechnol. 28, 1248-1250, 2010). Survival curves between septin high and low population and their statistical significance were analyzed using GraphPad Prism software (Mantel-Cox test). […] Structural Modification of FCF. […]

[3] = test system: HE4; assay: HE4 ELISA, secreted and intracellular levels; format: cell-based, human; settings: ECC-1, 5 hours
Experimental: Cell lines, Culture, and Reagents. Cells were maintained in either DMEM (SKOV-3, KLE, OVCAR-3, OVCAR8-C5 and IGROV-1) or RPMI-1640 (ECC-1 and HCH-1), supplemented with 10% fetal calf serum (or 20% for OVCAR-3), penicillin (100 units/mL), and streptomycin (100 μg/mL) at 37° C. with 5% CO2 in a humidified incubator. Antibodies were purchased from Abcam (septin-2; ab179436) and Cell Signaling Technology; ERK (9102), p-ERK (4370), -actin (3700), u-Tubulin (2144), EGFR (4267) and HER2 (4290). FCF was purchased from Abcam. All other chemicals were from Sigma Aldrich. Synthesis of Derivaties. […] The reaction was monitored using thin-layer chromatography plates with DCM-MeOH or pure ethyl acetate as eluent. Spots were monitored in a UV chamber. The reaction mixture, upon completion of the reaction, was poured into wet ice mixture and triturated, then the separated solid was filtered by vacuum. The product was washed with hexane, followed by diethyl ether, and was dried under vacuum. The compounds were characterized by spectrophotometric techniques. Quantitative Real-Time PCR. The indicated cell lines were transfected with siRNA targeting septin-2 or non-targeting control siRNA (Santa Cruz Biotechnology: sc-37007 or sc-40936) using Lipofectamine 3000 (Invitrogen). Tri reagent and Direct-zol kit (Zymo Research) were used to lyse and isolate total RNA. Reverse transcription was performed using iScript cDNA synthesis kit (BioRad), both following the manufacturer's recommendations. Quantitative real-time PCR was conducted using QuantStudio 12 K Flex Real-Time PCR System (ABI) and the Taqman Gene Expression Assay (ABI) consisting of the FAM-labeled probes as follows: SEPT2 (Hs01565417_ml); WFDC2 (Hs00899484_ml); TBP (Hs00427620_ml) or B2M (Hs00187842_ml), which was used as reference for normalization. Cell Viability, Proliferation and Apoptosis Assay. Cell viability, proliferation, and cellular apoptosis were measured using the MTS (Promega), BrdU cell proliferation (Cell Signaling Technology), and Caspase-Glo 3/7 apoptosis detection (Promega) assays, following the respective manufacturer's recommendations with suitable modification. Enzyme-Linked Immunosorbent Assay (ELISA) and Immunoblotting. Cells were maintained overnight in the culture media described above. […] Following the treatment, cell lysates and supernatants were collected and subjected to HE4 assay (Human HE4 Quantikine ELISA Kit, R&D Systems). The amount of HE4 in supernatant was normalized to the protein concentration of matching cell lysate. The levels of HER2 were determined by Human Total ErbB2/Her2 DuoSet IC ELISA (R&D systems. Wester blot analysis was conducted using the protocol previously published (see Kim, K. K. et al. Tetrathiomolybdate inhibits mitochondrial complex IV and mediates degradation of hypoxia-inducible factor-1alpha in cancer cells. Sci. Rep. 5, 14296, 2015). Data Acquisition and Statistical Analysis. Gene expression profiling of septins, comparing microdissected normal ovarian stroma (N=8) against that of tumor stroma samples (N=31) from high grade serous ovarian cancer patients, was obtained from Mixed Ovarian Cancer (CAFs)-Wong-77-u133p2 data-set through ‘R2: Genomics Analysis and Visualization Platform (http://r2/am/n1). […] Survival curves between septin high and low population and their statistical significance were analyzed using GraphPad Prism software (Mantel-Cox test). […]

[4] = test system: ECC-1 cells; assay: BrdU cell proliferation assay; format: cell-based; settings: ECC-1, 48 hours, BrdU, lower dose ranges
Experimental: (§1) Cell lines, Culture, and Reagents. Cells were maintained in either DMEM (SKOV-3, KLE, OVCAR-3, OVCAR8-C5 and IGROV-1) or RPMI-1640 (ECC-1 and HCH-1), supplemented with 10% fetal calf serum (or 20% for OVCAR-3), penicillin (100 units/mL), and streptomycin (100 μg/mL) at 37° C. with 5% CO2 in a humidified incubator. Antibodies were purchased from Abcam (septin-2; ab179436) and Cell Signaling Technology; ERK (9102), p-ERK (4370), -actin (3700), u-Tubulin (2144), EGFR (4267) and HER2 (4290). FCF was purchased from Abcam. All other chemicals were from Sigma Aldrich. Synthesis of Derivaties. […] The reaction was monitored using thin-layer chromatography plates with DCM-MeOH or pure ethyl acetate as eluent. Spots were monitored in a UV chamber. The reaction mixture, upon completion of the reaction, was poured into wet ice mixture and triturated, then the separated solid was filtered by vacuum. The product was washed with hexane, followed by diethyl ether, and was dried under vacuum. The compounds were characterized by spectrophotometric techniques. Quantitative Real-Time PCR. The indicated cell lines were transfected with siRNA targeting septin-2 or non-targeting control siRNA (Santa Cruz Biotechnology: sc-37007 or sc-40936) using Lipofectamine 3000 (Invitrogen). […] Quantitative real-time PCR was conducted using QuantStudio 12 K Flex Real-Time PCR System (ABI) and the Taqman Gene Expression Assay (ABI) consisting of the FAM-labeled probes as follows: SEPT2 (Hs01565417_ml); WFDC2 (Hs00899484_ml); TBP (Hs00427620_ml) or B2M (Hs00187842_ml), which was used as reference for normalization. […] Cell viability, proliferation, and cellular apoptosis were measured using the MTS (Promega), BrdU cell proliferation (Cell Signaling Technology), and Caspase-Glo 3/7 apoptosis detection (Promega) assays, following the respective manufacturer's recommendations with suitable modification. […] Survival curves between septin high and low population and their statistical significance were analyzed using GraphPad Prism software (Mantel-Cox test). […]

[5] = test system: ECC-1 cells; assay: Caspase-3/7 activity apoptosis assay; format: cell-based; settings: ECC-1, 33 μM, 48 hours
Experimental: (§2) Cell lines, Culture, and Reagents. Cells were maintained in either DMEM (SKOV-3, KLE, OVCAR-3, OVCAR8-C5 and IGROV-1) or RPMI-1640 (ECC-1 and HCH-1), supplemented with 10% fetal calf serum (or 20% for OVCAR-3), penicillin (100 units/mL), and streptomycin (100 μg/mL) at 37° C. with 5% CO2 in a humidified incubator. Antibodies were purchased from Abcam (septin-2; ab179436) and Cell Signaling Technology; ERK (9102), p-ERK (4370), -actin (3700), u-Tubulin (2144), EGFR (4267) and HER2 (4290). FCF was purchased from Abcam. All other chemicals were from Sigma Aldrich. Synthesis of Derivaties. […] The reaction was monitored using thin-layer chromatography plates with DCM-MeOH or pure ethyl acetate as eluent. Spots were monitored in a UV chamber. […] Quantitative Real-Time PCR. […] Quantitative real-time PCR was conducted using QuantStudio 12 K Flex Real-Time PCR System (ABI) and the Taqman Gene Expression Assay (ABI) consisting of the FAM-labeled probes as follows: SEPT2 (Hs01565417_ml); WFDC2 (Hs00899484_ml); TBP (Hs00427620_ml) or B2M (Hs00187842_ml), which was used as reference for normalization. […] Cell viability, proliferation, and cellular apoptosis were measured using the MTS (Promega), BrdU cell proliferation (Cell Signaling Technology), and Caspase-Glo 3/7 apoptosis detection (Promega) assays, following the respective manufacturer's recommendations with suitable modification. […]

[6] = test system: ECC-1 cells; assay: MTS cell viability, ECC-1; format: cell-based; settings: ECC-1, 48 hours, MTS (FIG. 2B)
Experimental: as §1

[7] = test system: EGFR; assay: Western blot of EGFR expression; format: cell-based; settings: UR214-7 33 μM, UR214-9 33 μM; 24 hours
Experimental: as §2

[8] = test system: HCH-1 cells; assay: MTS cell viability, HCH-1; format: cell-based; settings: HCH-1, 72 hours, compared with UR214-9
Experimental: as §2

[9] = test system: HER2; assay: Western blot of HER2 expression in ECC-1 and HCH-1 cells; format: cell-based; settings: UR214-7 33 μM, UR214-9 33 μM, FCF 300 μM, 24 hours
Experimental: as §1

In the case of CN(C)C/C=C/C(=O)Nc1cc2c(Nc3ccc(F)c(Cl)c3)ncnc2cc1O[C@H]1CCOC1 [Afatinib], the “dysregulated genes, down” value ([1]; 1 μM UR214-9) is reported as 523, the “dysregulated genes, up” value ([1]; 1 μM UR214-9) is reported as 713 and the “dysregulated (differentially expressed) genes versus control” value ([1]; 1 μM UR214-9, adjusted p-value <0.05) is reported as 1236 genes.

O=C(Nc1ccnc(Cl)c1)Nc1cc(SC(F)(F)F)ccc1Cl [UR214-1] was tested, and the “proliferation in multiple endometrial and ovarian cancer cells” value [2] was “blocked proliferation”, the “cytotoxic / anti-proliferative activity (FIG. 2A)” value ([2]; MTS) was “very potent cytotoxic activity” and the HE4 secretion [3] was “reduced HE4 secretion”.

For O=C(Nc1cccc(OCc2ccccc2)c1)Nc1ccnc(Cl)c1 [UR214-2], the “cytotoxic / anti-proliferative activity (FIG. 2A)” value ([2]; MTS) was “not tolerated”.

O=C(Nc1ccc(-n2cccc2)cc1)Nc1ccnc(Cl)c1 [UR214-3] was tested, and the “cytotoxic / anti-proliferative activity (FIG. 2A)” value ([2]; MTS) was “not tolerated”.

For O=C(Nc1ccc(-c2ncccn2)cc1)Nc1ccnc(Cl)c1 [UR214-4], the “cytotoxic / anti-proliferative activity (FIG. 2A)” value ([2]; MTS) was “not tolerated”.

With O=C(Nc1cnc(Cl)nc1)Nc1cc(SC(F)(F)F)ccc1Cl [UR214-6] the “cytotoxic / anti-proliferative activity (FIG. 2A)” value ([2]; MTS) was “lack of activity”.

For O=C(Nc1ccnc(Cl)c1)Nc1cccc(SC(F)(F)F)c1F [UR214-7], the proliferation [4] was “reduce proliferation”, the “apoptosis (caspase-3/7 activity)” value [5] was “caused apoptosis” and the concentration inhibiting viability [6] was no less than 11 µM. The EGFR expression [7] was “did not have an effect”, the “viability of tumor cells, dose-dependent (FIG. 2E)” value [8] was “superior efficacy” and the HER2 expression [9] was “inhibition of HER2 expression”. The “proliferation in multiple endometrial and ovarian cancer cells” value [2] was “blocked proliferation” and the HE4 secretion [3] was “reduced HE4 secretion”.

For O=C(Nc1ccnc(Br)c1)Nc1cccc(C(F)(F)F)c1F [UR214-11], the “viability of tumor cells, dose-dependent (FIG. 2E)” value ([2]; 72 hours, MTS) was “did not lose activity”.
